# Assay results as given in US6790862B2 (priority 1999, dated 2004).
# Where two headings read alike, the source gives them in different places.
# Experiments:
# [1] = indirect, fragment-based computational calculation; cited from earlier work
# [2] = tested on: HL-60 cells; experiment: MTT cell proliferation assay; type: cell-based, human; conditions: for IC50: Homo sapiens
# Experimental: (§1) Tumorigenic and non-tumorigenic cell lines were cultured as previously described in Hood K. A., West L. M., Northcote P. T., Berridge M. V., Miller J. H., Apoptosis (2001), 6, 207-219. These cell lines included HL-60 and KS62, two tumorigenic human myeloid leukemic cell lines, 32D clone 3 (32D), a non-tumorigenic murine myeloid cell line, 32D-ras, the ras-transformed derivative of 32D, H441, a human lung adenocarcinoma cell line, SH-SY5Y, a human neuroblastoma cell line, and LLC-PK1, a non-tumorigenic pig kidney cell line. IC50 values for Peloruside A in the different cell lines were determined using the tetrazolium-based MTT cell proliferation assay as previously described (Hood K. A et al.).
# [3] = tested on: b-tubulin in HL-60 cells; experiment: in situ tubulin polymerization, immunoblot of soluble and particulate fractions; type: cell-based, human; conditions: 5 h; for effect on proportion of soluble to polymerized tubulin: HL-60, different concentrations; for b-tubulin remaining in the soluble fraction: HL-60, 100 nM
# Source text: A simple in situ cellular assay as described by Giannakakou P., Gussio R., Nogales E., Downing K. H., Zaharevitz D., Bollbuck B., Poy G., Sackett D., Nicolaou K. C., Fojo T., Proc. Nat. Acad. Sci. (USA) (2000), 97, 2904-2909 was used in which the shift in tubulin from depolymerized to polymerized forms was followed by electrophoresis and Western blotting of centrifuged particulate and cytosolic fractions. To summarize, 2×10^6 untreated and drug-exposed HL-60 cells were lysed by exposure for 5 min at 37° C. to […] of hypotonic buffer (1 mM MgCl2, 2 mM EGTA, 1% Nonidet P-40, 2 mM phenylmethylsulfonyl fluoride, 1 mg/mL aprotinin, 2 mg/mL pepstatin, and 20 mM Tris-HCl, pH 6.8) and the particulate fraction separated from the soluble cytosolic fraction by high speed centrifugation for 10 min in a bench-top centrifuge. Samples labeled ‘0 min’ received drug immediately before collection of the cells. The processing of the cells to the critical centrifugation step required approximately 30 min. The pellet was dissolved in […] of sample buffer (8 M urea, 4% CHAPS, 3 M thiourea, and 40 mM DTT). Twenty mL of loading buffer was added to each […] sample, the samples were vortexed and then boiled for 5 min. Twenty mL of each sample was loaded on an SDS/10% polyacrylamide gel and resolved by electrophoresis. b-Tubulin bands were identified by Western blotting using b-tubulin primary antibody ( 1/1000 dilution) following standard immunoblotting procedures with detection by enhanced chemiluminescence (Lumi-Light, Roche).
# Scale bar (lower right)=500 nm.
# [4] = tested on: P388 (Murine Leukemia) cells; experiment: anti-tumor assay, P388 cell growth, MTT; type: cell-based; conditions: Mus musculus, 72 hours incubation, read-out: cytotoxic to P388 murine leukemia cells (IC50)
# Experimental: The bioactivity of peloruside A as an anti-tumor agent was determined by an anti-tumor assay. For the anti-tumor assay a 2-fold dilution series of the same of interest is incubated for 72 hours with P388 (Murine Leukemia) cells. The concentration of sample required to reduce the P388 cell growth by 50% (comparative to control cells) is determined using the absorbance values obtained with the yellow dye MTT tetrazollum is reduced by healthy cells to the purple colour MTT formazan. The result is expressed as an IC50 in ng/mL.
# [5] = tested on: LLC-PK1 (pig kidney); experiment: MTT cytotoxicity assay, 96 hours exposure; type: cell-based; conditions: LLC-PK1, 96 hours exposure
# Experimental: (§2) The cytotoxicity of Peloruside A was tested in five cell lines:
# (§3) 32D (murine myeloid) generally in accordance with the MTT assay of Burres et al., J. Cancer Research (1989), 49, 2935-2940.
# (§4) Briefly, cell lines were maintained in Dulbecco's modified Eagle's medium: F12 medium (50:50) (Gibco) supplemented with 10% fetal calf serum (Gibco), […] Penicillin G, and […] streptomycin sulfate. After 96 hours exposure to the toxin, cell viability was determined by the MTT calorimetric assay. […] Data were analysed with the SYSTAT statistical program using a non-linear model fit, and IC50 values were calculated using a Logit-Log plot.
# [6] = tested on: P388 (murine leukemia); experiment: MTT cytotoxicity assay, 96 hours exposure; type: cell-based; conditions: P388, 96 hours exposure
# Experimental: as §2, §3, §4
# [7] = tested on: H441 (human lung adenocarcinoma); experiment: MTT cytotoxicity assay, 96 hours exposure; type: cell-based; conditions: for nuclei break up into small vessicles (nuclear blebbing): H441, comparators at their respective LD50s
# Experimental: as §2
# H441 (human lung adenocarcinoma)
# as §3, §4
# [8] = tested on: SH-SY5Y (human neuroblastoma); experiment: MTT cytotoxicity assay, 96 hours exposure; type: cell-based
# Experimental: as §2
# SH-SY5Y (human neuroblastoma)
# as §3, §4
# [9] = tested on: 32D (murine myeloid); experiment: MTT cytotoxicity assay; type: cell-based
# Experimental: as §2, §3
# as §4, with “After 96 hours exposure to the toxin, cell viability was determined by the MTT calorimetric assay.” left out
# [10] = tested on: different cell lines (H441, SY5Y, HL-60, 32D-ras, 32D, LLC-PK1); experiment: MTT cell proliferation assay in the different cell lines; type: cell-based; conditions: 96 h; 4-day exposure
# Experimental: as §1
# [11] = tested on: H441 cells; experiment: cellular morphology, phase-contrast microscopy; type: cell-based, human; conditions: for treated cells with intracellular fiber bundles: H441, 48 h; for treated cells with intracellular fiber bundles / micronuclei: 100 nM; for micronuclei: H441, 2 days exposure; for intracellular fiber bundles: H441, phase-contrast microscopy
# Experimental: Phase-contrast photomicrographs of H441 human lung adenocarcinoma cells: untreated control cells (A) and cells exposed for 48 h to 100 nM Peloruside A (B) or 100 nM paclitaxel (C). Note the intracellular fiber bundles in approximately 10% of the treated cells and the numerous micronuclei, each with a dark central spot of condensed DNA. Scale bar=[…].
# [12] = tested on: K562 cells; experiment: cellular morphology; type: cell-based, human; conditions: K562, 2 days exposure, 100 nM
# [13] = tested on: HeLa cells; experiment: anti-metabolic activity, WST-1 reduction; type: cell-based; parameters: stimulation of WST-1 reduction: dose or concentration left out as unconfirmed
# Experimental: (§5) The effect of Peloruside A and paclitaxel on superoxide production was determined using human peripheral blood neutrophils activated with […] N-formyl-met-leu-phe (fMLP) as described previously (Tan A. S., Berridge M. V., J. Immunol. Meth. (2000), 238, 59-68). In this microplate assay, the cell-impermeable tetrazolium salt, WST-1, is reduced to its soluble formazan and dye reduction measured at 450 nm as an initial rate over 10-20 min. Samples were equilibrated with cells for 3 min at 37° C. and the reaction initiated by adding fMLP. Measurement of anti-metabolic activity followed a similar microplate protocol except that HeLa cells were used instead of neutrophils, cells were not activated with fMLP, and the intermediate electron acceptor, 1-methoxy phenazine methosulfate at 25 mM, was included in the WST-1 reagent to facilitate detection of low potential electrons from the plasma membrane.
# [14] = tested on: H441 cells; experiment: cell cycle by flow cytometry (PI) and mitotic index; type: cell-based, human; parameters: metaphase-arrested cells (mitotic index): dose or concentration left out as unconfirmed; conditions: H441, 24 h
# Experimental: Using standard methodology, the DNA of cells was stained with propidium iodide (PI), and the proportion of cells in different phases of the cell cycle was monitored by flow cytometry. Briefly, H441 cells were treated with […] for 24 h. Adherent cells were collected by trypsinization and added to those in suspension. The cells were then fixed with cold 70% ethanol overnight and stained with PI solution consisting of 45 mg/mL PI, 10 mg/mL RNaseA, and 0.1% glucose. After a 2 h incubation at RT, samples were analysed in a FACSort flow cytometer (Becton Dickinson).
# Cells were treated with […] Peloruside A or paclitaxel, stained with PI, and counted by flow cytometry. For the mitotic index, cells were treated for 24 h with different concentrations of Peloruside A or paclitaxel, and the number of cells in mitosis divided by the total number of cells (n=at least 400 cells counted in each of 3 preparations).
# [15] = tested on: purified tubulin; experiment: in vitro tubulin polymerization and electron microscopy; type: biochemical; parameters: polymerization of purified tubulin in solution: dose or concentration left out as unconfirmed; conditions: for polymerization of purified tubulin in solution: 30 min, 37° C., electron microscopy; for stability of induced microtubules: at 0C
# Experimental: Purified tubulin (approximately 7.5 mg protein) containing approximately 15% microtubule-associated proteins was obtained from Sigma and reconstituted in 0.1 M MES buffer, pH 6.8, 1 mM EGTA, 0.1 mM EDTA, 0.5 mM MgCl2, 1 mM DTT, 0.1 mM GTP, 1 mg/mL leupeptin, 1 mg/mL aprotinin, and 100 mg/mL sucrose as stabilizer. The reconstituted tubulin was incubated at 37° C. for 30 min in the presence of […] Peloruside A or […] paclitaxel. Samples […] were pipetted onto 400-mesh carbon- and Formvar-coated copper grids and left for 2 min at RT before blotting with filter paper. Each grid was stained with 5 mL of 1% uranyl acetate for 3 min at RT, then blotted with filter paper. Grids were air-dried overnight before examination in a Philips CM100 transmission electron microscope.
# (B) Immunoblots following exposure to […] Peloruside A and […] paclitaxel for varying lengths of time. (C) Transmission electron micrograph of microtubules formed following treatment of purified soluble tubulin with […] Peloruside A for 30 min at 37° C. Scale bar (lower right)=500 nm.
# [16] = lipophilicity by thin layer chromatography; type: physicochemical
# [17] = tested on: human peripheral blood neutrophils; experiment: fMLP-activated respiratory burst, superoxide production (WST-1); type: cell-based; parameters: dose or concentration left out as unconfirmed
# Experimental: as §5
Compound,IC50 ([2]; HL-60) [nM],effect on proportion of soluble to polymerized tubulin [3],nuclei break up into small vessicles (nuclear blebbing) [7],treated cells with intracellular fiber bundles [11],micronuclei [11],intracellular fiber bundles [11],micronuclei [12],cell cycle arrest [14],metaphase-arrested cells (mitotic index) [14] [%],b-tubulin remaining in the soluble fraction [3],polymerization of purified tubulin in solution [15],stability of induced microtubules [15],further results
"C=C/C=C\[C@H](C)[C@H](OC(N)=O)[C@@H](C)[C@H](O)[C@@H](C)C/C(C)=C\[C@H](C)[C@@H](O)[C@@H](C)/C=C\[C@@H](O)C[C@@H]1OC(=O)[C@H](C)[C@@H](O)[C@H]1C [Discodermolide, discodermolide]",–,–,–,–,–,–,–,–,–,–,–,–,solubility relative to paclitaxel [1]: 160 fold
CCC(/C=C(/C)C1C[C@H](OC)C[C@@H](O)C(C)(C)C(O)C(O)C(OC)C[C@H](O)C[C@H](OC)[C@@H](O)C(=O)O1)CO (stereo partly drawn) [Peloruside A reduction product],221 ± 24,no significant effect,–,–,–,–,–,–,–,–,–,–,increase of IC50 relative to Peloruside A ([2]; HL-60 cells): 31 fold
CCC(/C=C(/C)C1C[C@H](OC)C[C@@H](O)C(C)(C)[C@]2(O)OC(CC(OC)C2O)C[C@H](OC)[C@@H](O)C(=O)O1)CO (stereo partly drawn) [Peloruside A],7 ± 4,dose-dependent shifts of soluble tubulin to the particulate fraction,nuclei of the cells were observed to break up into small vessicles,approximately 10%,multiple micronuclei were observed,large intracellular fiber bundles were observed,multiple micronuclei were observed,partial cell cycle arrest at G2/M,34±2,No detectable b-tubulin remained in the soluble fraction,"polymerize in solution into typical, long, straight microtubules",stable,"IC50 [4]: ~0.01 µg/mL; LD50 [5]: 3.7 nM; LD50 [6]: 18 nM; LD50 ([7]; H441, 96 hours exposure): 6.2 nM; retraction of dendrites [8]: no retraction of dendrites was observed; LD50 ([8]; 96 hours exposure): 14.9 nM; LD50 ([9]; 96 hours exposure): 0.0078 µM; LD50 ([9]; viability at 24 hours of exposure): 1600 µM; IC50 [10]: 4 to 15 nM; stimulation of WST-1 reduction [13]: 20%; lipophilicity [16]: less lipophilic than paclitaxel"
"C=C1C[C@](OC)([C@H](O)C(=O)N[C@H]2OCO[C@H]3[C@@H]2O[C@H](C[C@H](O)CO)C(C)(C)[C@@H]3OC)O[C@H](C)[C@@H]1C [mycalamide A, reference compound]",–,–,not been observed,–,–,–,–,–,–,–,–,–,–
"CC(=O)O[C@H]1C(=O)[C@@]2(C)[C@H]([C@H](OC(=O)c3ccccc3)[C@]3(O)C[C@H](OC(=O)[C@H](O)[C@@H](NC(=O)c4ccccc4)c4ccccc4)C(C)=C1C3(C)C)[C@]1(OC(C)=O)CO[C@@H]1C[C@@H]2O [paclitaxel, Paclitaxel, reference compound]",–,dose-dependent shifts of soluble tubulin to the particulate fraction,–,approximately 10%,multiple micronuclei were observed,large intracellular fiber bundles were observed,multiple micronuclei were observed,partial cell cycle arrest at G2/M,64±4,No detectable b-tubulin remained in the soluble fraction,"polymerize in solution into typical, long, straight microtubules",stable,"IC50 ([2]; HL-60 cells, ± S.E.M., read-out: IC50): 22 ± 8 nM; effect on neutrophil activation [17]: no effect; effect on WST-1 reduction ([13]; 12-24 mM): little effect"
pateamine [reference compound],–,–,not been observed,–,–,–,–,–,–,–,–,–,–
